Data as given in patent US20250213494A1, “METHODS AND COMPOSITIONS FOR POTENTIATION OF A LIGAND” (priority 2022, published 2025).

Tested on: RXFP1 gene expression in human fibroblast like synoviocytes
Assay: RXFP1 gene expression by qPCR after corticosteroid treatment under fibrotic conditions
Type: cell-based
Conditions: qPCR (FIG. 3)
Text: RXFP1 gene expression after treatment with (left) dexamethasone, (middle) methylprednisolone, and (right) cortisone under fibrotic conditions.

SMILES: C[C@]12CCC(=O)C=C1CC[C@@H]1[C@@H]2C(=O)C[C@@]2(C)[C@H]1CC[C@]2(O)C(=O)CO [cortisone]
- RXFP1 gene expression: increases RXFP1 gene expression
